The values below come from patent US20200325116A1, “SOLID FORMS OF A PLASMA KALLIKREIN INHIBITOR AND SALTS THEREOF” (KALVISTA PHARMACEUTICALS LIMITED, priority 2017, published 2020).

One series addresses T1, Human KLK1 (Homo sapiens, UniProt P06870).
T1 construct: purchased Callbiochem
Description: Determination of the IC50 for KLK1. The settings on record: 25° C., substrate H-DVal-Leu-Arg-AFC. The format is biochemical. The method, then: KLK1 inhibitory activity in vitro was determined using standard published methods (see e.g. Johansen et al., Int. J. Tiss. Reac. 1986, 8, 185; Shori et al., Biochem. Pharmacol., 1992, 43, 1209; Stürzebecher et al., Biol. Chem. Hoppe-Seyler, 1992, 373, 1025). Human KLK1 (Callbiochem) was incubated at 25° C. with the fluorogenic substrate H-DVal-Leu-Arg-AFC and various concentrations of the test compound. Residual enzyme activity (initial rate of reaction) was determined by measuring the change in optical absorbance at 410 nm and the IC50 value for the test compound was determined.

The target in a further series is T2, Human FXIa (Homo sapiens, UniProt P03951).
T2 construct: purchased Enzyme Research Laboratories
T2 sequence (P03951 388-625 limits assumed): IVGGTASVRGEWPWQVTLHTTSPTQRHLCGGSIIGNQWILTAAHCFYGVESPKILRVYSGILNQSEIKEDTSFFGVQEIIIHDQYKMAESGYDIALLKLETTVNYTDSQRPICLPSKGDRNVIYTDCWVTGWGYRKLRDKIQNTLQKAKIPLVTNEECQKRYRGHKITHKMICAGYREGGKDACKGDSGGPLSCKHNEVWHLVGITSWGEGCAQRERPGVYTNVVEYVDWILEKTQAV
T2 sequence (P03951 19-387 partner limits assumed): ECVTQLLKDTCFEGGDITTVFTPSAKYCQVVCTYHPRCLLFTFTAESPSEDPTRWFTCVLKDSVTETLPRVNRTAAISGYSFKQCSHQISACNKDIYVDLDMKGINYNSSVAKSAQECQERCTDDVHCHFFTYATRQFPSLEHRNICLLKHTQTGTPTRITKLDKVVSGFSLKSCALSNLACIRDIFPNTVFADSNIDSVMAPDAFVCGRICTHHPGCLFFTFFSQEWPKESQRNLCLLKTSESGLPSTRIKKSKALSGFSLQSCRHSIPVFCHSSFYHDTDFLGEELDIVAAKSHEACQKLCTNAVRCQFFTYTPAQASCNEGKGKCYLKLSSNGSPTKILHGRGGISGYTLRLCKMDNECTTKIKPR
Description: Determination of the % inhibition / IC50 for FXIa. Conditions: 25° C., substrate Z-Gly-Pro-Arg-AFC. The format is biochemical. The method, then:
Residual enzyme activity (initial rate of reaction) was determined by measuring the change in optical absorbance at 410 nm and the IC50 value for the test compound was determined.

The target in another series is T3, Human Factor XIIa (Homo sapiens, UniProt P00748).
T3 construct: purchased Enzyme Research Laboratories
T3 sequence (P00748 373-615 limits assumed, other chains not shown): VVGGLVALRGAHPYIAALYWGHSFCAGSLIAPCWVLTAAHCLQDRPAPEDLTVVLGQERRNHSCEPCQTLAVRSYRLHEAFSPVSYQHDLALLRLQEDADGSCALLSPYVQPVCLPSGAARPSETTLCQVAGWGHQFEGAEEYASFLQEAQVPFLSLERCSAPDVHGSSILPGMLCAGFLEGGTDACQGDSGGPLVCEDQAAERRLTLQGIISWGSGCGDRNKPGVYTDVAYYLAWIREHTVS
Description: Determination of the IC50 for FXIIa. The settings on record: 25° C., substrate H-DPro-Phe-Arg-AFC. Format: biochemical. The method, then: Factor XIIa inhibitory activity in vitro was determined using standard published methods (see e.g. Shori et al., Biochem. Pharmacol., 1992, 43, 1209; Baeriswyl et al., ACS Chem. Biol., 2015, 10 (8) 1861; Bouckaert et al., European Journal of Medicinal Chemistry 110 (2016) 181). Human Factor XIIa (Enzyme Research Laboratories) was incubated at 25° C. with the fluorogenic substrate H-DPro-Phe-Arg-AFC and various concentrations of the test compound. Residual enzyme activity (initial rate of reaction) was determined by measuring the […] and the IC50 value for the test compound was determined.

Series [1] is described as follows: Pharmacokinetics after a single oral dose in rats. Format: in vivo. The settings on record: male, Sprague-Dawley, rat, 10% DMSO/10% cremophor/80% SWFI, plasma. The method, then:
Pharmacokinetic studies of the compounds in Table 4 were performed to assess the pharmacokinetics following a single oral dose in male Sprague-Dawley rats. […] Following dosing, blood samples were collected over a period of […]. Sample times were 5, 15 and 30 minutes then 1, 2, 4, 6, 8 and 12 hours. Following collection, blood samples were centrifuged and the plasma fraction analysed for concentration of test compound by LCMS.

Another series concerns the target trypsin. Description: Enzyme selectivity, trypsin. The format is biochemical, human. The settings on record: substrate at Km concentration.
A short description of series [2]: In vitro permeability, Caco-2 model for oral absorption. Format: in vitro ADME. The settings on record: human, Caco-2; 50 μM, apical to basolateral, 1 hour at 37° C. The method, then:
(§1) In vitro permeability was determined using the Caco-2 model for oral absorption. The methodology was adapted from standard published methods (Wang Z, Hop C. E., Leung K. H. and Pang J. (2000) J Mass Spectrom 35(1); 71-76). […] For the assay, 50 μM test compound is added to the apical side of the inserts and incubated for 1 hour at 37° C. on a shaking platform (120 rpm). Apical to basolateral transport was determined by measuring the test article in both compartments by LCMS following the 1 hour incubation. The integrity of the Caco-2 monolayers was confirmed by two methods, (i) comparison of pre- and post-experiment transepithelial electrical resistance (TEER) and, (ii) assessment of Lucifer Yellow flux.
On the technique in general: Caco-2 monolayers are a common model of the intestinal barrier.

Another series relates to Caco-2 monolayers. The series is described as above. Format: in vitro ADME. The method, then: as §1
In series [3] the test system is LPS-induced disseminated intravascular coagulation. The settings on record: cited from earlier work.
A further series relates to rats. The settings on record: systemic administration; cited from earlier work.
The subject of another series is blood. The settings on record: contacting blood with the substance; cited from earlier work.
Series [4] has as its system intrinsic pathway of coagulation. The settings on record: in vitro; cited from earlier work.
For the next series, the system named is postoperative bleeding. Conditions: in vivo; cited from earlier work.

pIC50: −log10 of the molar value.

T1 sequence (P06870 25-262): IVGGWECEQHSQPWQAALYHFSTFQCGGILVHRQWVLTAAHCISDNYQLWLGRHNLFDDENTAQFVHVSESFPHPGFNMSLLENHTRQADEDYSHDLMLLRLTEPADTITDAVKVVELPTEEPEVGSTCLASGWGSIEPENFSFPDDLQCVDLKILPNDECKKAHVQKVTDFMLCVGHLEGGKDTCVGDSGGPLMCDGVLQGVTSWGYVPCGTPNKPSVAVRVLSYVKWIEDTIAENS
Description for trypsin: Human serine protease enzymes plasmin, thrombin and trypsin were assayed for enzymatic activity using an appropriate fluorogenic substrate. Protease activity was measured by monitoring the accumulation of liberated fluorescence from the substrate over 5 minutes. The linear rate of fluorescence increase per minute was expressed as percentage (%) activity. The Km for the cleavage of each substrate was determined by standard transformation of the Michaelis-Menten equation.

For `COCc1nn(Cc2ccc(Cn3ccccc3=O)cc2)cc1C(=O)NCc1nccc(OC)c1F` [Example 41 of WO2016/083820, N-[(3-fluoro-4-methoxypyridin-2-yl)methyl]-3-(methoxymethyl)-1-({4-[(2-oxopyridin-1-yl)methyl]phenyl}methyl)pyrazole-4-carboxamide], the pIC50 at Human KLK1, against Human FXIa and on Human Factor XIIa was below 4.40 throughout. In addition, the highest concentration (Cmax) in series [1] (po 10.5 mg/kg) was 1530 ng/mL. Besides, the Tmax in series [1] (po 10.5 mg/kg) was 3 h.
Take `COc1ccnc(CNC(=O)c2cn(Cc3ccc(Cn4ccccc4=O)cc3)nc2C(F)(F)F)c1F` [Compound of Formula A, N-[(3-fluoro-4-methoxypyridin-2-yl)methyl]-1-({4-[(2-oxopyridin-1-yl)methyl]phenyl}methyl)-3-(trifluoromethyl)pyrazole-4-carboxamide]: at trypsin, the pIC50 is below 4.40. In addition, the Papp A→B at 1 h, 50 μM in series [2] was found to be 17 ×10⁻⁶ cm/s. Further, the “pharmacokinetic properties, in particular in vitro permeability (in words)” value with Caco-2 monolayers is listed as “surprisingly good”. Besides, in series [1] (po 2.2 mg/kg), the Cmax turned out to be 1800 ng/mL and the Tmax was 0.5 h.
As to `Cl.NCC1CCC(C(=O)N[C@@H](Cc2ccccc2)C(=O)Nc2ccc(CC(=O)O)cc2)CC1` (stereo partly drawn) [PKSI-527], in [3], the “decrease in platelet count and fibrinogen level, increase in FDP level” value is given as “significantly suppressed”.
For `N=C(N)c1ccc(CNC(=O)c2cnn(Cc3ccccc3)c2)cc1` [ASP-440], the hematoma expansion result in the series with rats is on record as “reduced”.
Regarding Ecallantide, the “activated clotting time (ACT)” value with blood was “increase”. For the same compound, in [4], the “contact activated induced coagulation” value is “delay”.
Regarding aprotinin, in the series on postoperative bleeding, the postoperative bleeding result was “decrease”.

For orientation: pIC50 means the negative decadic logarithm of the IC50, by convention in mol/L. Low readings indicate a high IC50, high ones a low IC50. By Cmax is commonly meant the maximum level reached in the sampled fluid or tissue. The Tmax is the time at which the peak concentration occurs. As a reminder, the Papp A→B is how fast a substance crosses the layer from the apical side. Low readings indicate slow passage, high ones fast passage.
